Test results taken from patent US20260232767A1, “INTERLEUKIN-23 RECEPTOR ANTAGONIST PEPTIDES FOR USE IN THE TREATMENT OF PSORIASIS” (Janssen Pharmaceutica NV, priority 2023, published 2026).

Tested on: subjects with moderate-to-severe plaque psoriasis
Experiment: PASI response, Example 2 long-term extension to Week 52
Type: in vivo, human
Details: for Change from Baseline in PASI Total Score, LSMean: MMRM model
Excerpt: Described below is a multicenter, long-term extension (LTE), double-blind, dose-ranging, parallel group interventional study in participants from Example 1 to evaluate the long-term efficacy and safety of the hydrochloride salt of the compound of Formula (I) for the treatment of moderate-to-severe plaque psoriasis. Patients from Example 1 continued to receive the same dose of the compound of Formula (I) for an additional 36-week treatment period with a 4-week safety follow up period after the last administration of the compound of Formula (I). Patients randomized to placebo in Example 1 received the compound of Formula (I) at a dose of 100 mg QD starting at Week 16 of Example 1 (FIG. 21).
The primary efficacy endpoint is the proportion of participants achieving a PASI 75 response at Week 52, defined as at least a […] reduction from baseline PASI of Example 1. For primary analysis, composite strategy (non-responder imputation) was applied to address intercurrent event #1 (Discontinuation of study intervention due to lack of efficacy or due to an AE of worsening of psoriasis) and […] (initiation of a protocol-prohibited medication or therapy that could improve psoriasis); treatment policy strategy (observed data) was applied to intercurrent event #3 (Discontinuation of study intervention due to other reasons). Participants with missing data after application of ICEs are considered as non-responders.
Since there was no control arm (after week 16), in this primary analysis, only the proportion of participants who achieved a PASI75 response and its […] confidence interval at Week 52 were summarized for each intervention group.

[1] = Placebo → 100 mg QD, crossed over at or after Week 16, Week 20
[2] = Placebo → 100 mg QD, crossed over at or after Week 16, Week 24
[3] = Placebo → 100 mg QD, crossed over at or after Week 16, Week 28
[4] = Placebo → 100 mg QD, crossed over at or after Week 16, Week 32
[5] = Placebo → 100 mg QD, crossed over at or after Week 16, Week 40
[6] = Placebo → 100 mg QD, crossed over at or after Week 16, Week 52
[7] = Placebo → 100 mg QD, crossed over at or after Week 16, Week 52, non-responder imputation

SMILES: CC(=O)NCCCC[C@@H]1NC(=O)[C@H](Cc2c[nH]c3c(C)cccc23)NC(=O)[C@H]([C@@H](C)O)NC(=O)[C@H](CC(N)=O)NC(=O)[C@@H](NC(C)=O)C(C)(C)SSC(C)(C)[C@@H](C(=O)N[C@@H](Cc2ccc(OCCN)cc2)C(=O)N[C@@H](Cc2ccc3ccccc3c2)C(=O)NC2(C(=O)N[C@@H](CCC(=O)O)C(=O)N[C@@H](CC(N)=O)C(=O)N[C@@H](Cc3cccnc3)C(=O)N(C)CC(N)=O)CCOCC2)NC1=O [IL-23 receptor antagonist peptide, Ac-[Pen]*-N-T-[W(7-Me)]-[Lys(Ac)]-[Pen]*-Phe[4-(2-aminoethoxy)]-[2-Nal]-[THP]-E-N-[3-Pal]-Sarc-NH2 (*[Pen]-[Pen]* formdisulfidebond)]
- Subjects achieving PASI 75 (100 mg QD, Week 52): 28 (65.1%)
- Change from Baseline in PASI Total Score, LSMean (100 mg QD, Week 52): −15.5
- Subjects achieving ≥75% Improvement at Week 52 (PASI 75 Response) (100 mg QD, Week 52, non-responder imputation): 28 (65.1%)
- Change from Baseline in PASI Total Score, Mean [1]: −10.44
- Change from Baseline in PASI Total Score, Median [1]: −10.35
- Change from Baseline in PASI Total Score, LSMean [1]: −10.3
- Change from Baseline in PASI Total Score, Mean [2]: −13.26
- Change from Baseline in PASI Total Score, Median [2]: −14.10
- Change from Baseline in PASI Total Score, LSMean [2]: −13.2
- Change from Baseline in PASI Total Score, Mean [3]: −13.77
- Change from Baseline in PASI Total Score, Median [3]: −14.10
- Change from Baseline in PASI Total Score, LSMean [3]: −13.7
- Change from Baseline in PASI Total Score, Mean [4]: −14.14
- Change from Baseline in PASI Total Score, Median [4]: −14.75
- Change from Baseline in PASI Total Score, LSMean [4]: −13.7
- Change from Baseline in PASI Total Score, Mean [5]: −13.73
- Change from Baseline in PASI Total Score, Median [5]: −14.85
- Change from Baseline in PASI Total Score, LSMean [5]: −13.6
- Change from Baseline in PASI Total Score, Mean [6]: −14.15
- Change from Baseline in PASI Total Score, Median [6]: −15.30
- Change from Baseline in PASI Total Score, LSMean [6]: −14.0
- Subjects achieving 100% Improvement at Week 52 (PASI) [7]: 12 (34.3%)
- Subjects achieving ≥75% Improvement at Week 52 (PASI 75 Response) [7]: 23 (65.7%)
- Subjects achieving ≥90% Improvement at Week 52 (PASI) [7]: 20 (57.1%)
- PASI ≥75% Improvement, subjects (%) (Week 1, 50 mg QD, N=43): (4.7%)
- PASI ≥75% Improvement, subjects (%) (Week 1, 100 mg BID, N=42): (2.4%)
- PASI ≥90% Improvement, subjects (%) (Week 1, 100 mg BID, N=42): (2.4%)
- PASI ≥75% Improvement, subjects (%) (Week 1, 100 mg QD, N=43): (2.3%)
- PASI ≥75% Improvement, subjects (%) (Week 2, 50 mg QD, N=43): (4.7%)
- PASI ≥75% Improvement, subjects (%) (Week 2, 100 mg BID, N=42): (4.8%)
- PASI ≥90% Improvement, subjects (%) (Week 2, 100 mg BID, N=42): (2.4%)
- PASI ≥75% Improvement, subjects (%) (Week 2, 100 mg QD, N=43): (2.3%)
- PASI ≥75% Improvement, subjects (%) (Week 4, 25 mg BID, N=41): (4.9%)
- PASI ≥75% Improvement, subjects (%) (Week 4, 25 mg QD, N=43): (9.3%)
- PASI ≥90% Improvement, subjects (%) (Week 4, 25 mg QD, N=43): (2.3%)
- PASI ≥75% Improvement, subjects (%) (Week 4, 50 mg QD, N=43): (16.3%)
- PASI ≥75% Improvement, subjects (%) (Week 4, 100 mg BID, N=42): (23.8%)
- PASI ≥90% Improvement, subjects (%) (Week 4, 100 mg BID, N=42): (9.5%)
- PASI ≥75% Improvement, subjects (%) (Week 4, 100 mg QD, N=43): (16.3%)
- PASI ≥90% Improvement, subjects (%) (Week 4, 100 mg QD, N=43): (4.7%)
- PASI 100% Improvement, subjects (%) (Week 8, 25 mg BID, N=41): (2.4%)
- PASI ≥75% Improvement, subjects (%) (Week 8, 25 mg BID, N=41): (19.5%)
- PASI ≥90% Improvement, subjects (%) (Week 8, 25 mg BID, N=41): (7.3%)
- PASI 100% Improvement, subjects (%) (Week 8, 25 mg QD, N=43): (2.3%)
- PASI ≥75% Improvement, subjects (%) (Week 8, 25 mg QD, N=43): (23.3%)
- PASI ≥90% Improvement, subjects (%) (Week 8, 25 mg QD, N=43): (14.0%)
- PASI 100% Improvement, subjects (%) (Week 8, 50 mg QD, N=43): (2.3%)
- PASI ≥75% Improvement, subjects (%) (Week 8, 50 mg QD, N=43): (39.5%)
- PASI ≥90% Improvement, subjects (%) (Week 8, 50 mg QD, N=43): (18.6%)
- PASI 100% Improvement, subjects (%) (Week 8, 100 mg BID, N=42): (11.9%)
- PASI ≥75% Improvement, subjects (%) (Week 8, 100 mg BID, N=42): (47.6%)
- PASI ≥90% Improvement, subjects (%) (Week 8, 100 mg BID, N=42): (28.6%)
- PASI 100% Improvement, subjects (%) (Week 8, 100 mg QD, N=43): (4.7%)
- PASI ≥75% Improvement, subjects (%) (Week 8, 100 mg QD, N=43): (44.2%)
- PASI ≥90% Improvement, subjects (%) (Week 8, 100 mg QD, N=43): (20.9%)
- PASI 100% Improvement, subjects (%) (Week 12, 25 mg BID, N=41): (4.9%)
- PASI ≥75% Improvement, subjects (%) (Week 12, 25 mg BID, N=41): (51.2%)
- PASI ≥90% Improvement, subjects (%) (Week 12, 25 mg BID, N=41): (19.5%)
- PASI 100% Improvement, subjects (%) (Week 12, 25 mg QD, N=43): (4.7%)
- PASI ≥75% Improvement, subjects (%) (Week 12, 25 mg QD, N=43): (34.9%)
- PASI ≥90% Improvement, subjects (%) (Week 12, 25 mg QD, N=43): (18.6%)
- PASI 100% Improvement, subjects (%) (Week 12, 50 mg QD, N=43): (4.7%)
- PASI ≥75% Improvement, subjects (%) (Week 12, 50 mg QD, N=43): (51.2%)
- PASI ≥90% Improvement, subjects (%) (Week 12, 50 mg QD, N=43): (34.9%)
- PASI 100% Improvement, subjects (%) (Week 12, 100 mg BID, N=42): (33.3%)
- PASI ≥75% Improvement, subjects (%) (Week 12, 100 mg BID, N=42): (73.8%)
- PASI ≥90% Improvement, subjects (%) (Week 12, 100 mg BID, N=42): (52.4%)
- PASI 100% Improvement, subjects (%) (Week 12, 100 mg QD, N=43): (14.0%)
- PASI ≥75% Improvement, subjects (%) (Week 12, 100 mg QD, N=43): (62.8%)
- PASI ≥90% Improvement, subjects (%) (Week 12, 100 mg QD, N=43): (39.5%)
- PASI 100% Improvement, subjects (%) (Week 16, 25 mg BID, N=41): (9.8%)
- PASI ≥75% Improvement, subjects (%) (Week 16, 25 mg BID, N=41): (51.2%)
- PASI ≥90% Improvement, subjects (%) (Week 16, 25 mg BID, N=41): (26.8%)
- PASI 100% Improvement, subjects (%) (Week 16, 25 mg QD, N=43): (11.6%)
- PASI ≥75% Improvement, subjects (%) (Week 16, 25 mg QD, N=43): (37.2%)
- PASI ≥90% Improvement, subjects (%) (Week 16, 25 mg QD, N=43): (25.6%)
- PASI 100% Improvement, subjects (%) (Week 16, 50 mg QD, N=43): (25.6%)
- PASI ≥75% Improvement, subjects (%) (Week 16, 50 mg QD, N=43): (58.1%)
- PASI ≥90% Improvement, subjects (%) (Week 16, 50 mg QD, N=43): (51.2%)
- PASI 100% Improvement, subjects (%) (Week 16, 100 mg BID, N=42): (40.5%)
- PASI ≥75% Improvement, subjects (%) (Week 16, 100 mg BID, N=42): (78.6%)
- PASI ≥90% Improvement, subjects (%) (Week 16, 100 mg BID, N=42): (59.5%)
- PASI 100% Improvement, subjects (%) (Week 16, 100 mg QD, N=43): (23.3%)
- PASI ≥75% Improvement, subjects (%) (Week 16, 100 mg QD, N=43): (65.1%)
- PASI ≥90% Improvement, subjects (%) (Week 16, 100 mg QD, N=43): (46.5%)
- PASI 100% Improvement, subjects (%) (Week 20, 25 mg BID, N=41): (19.5%)
- PASI ≥75% Improvement, subjects (%) (Week 20, 25 mg BID, N=41): (56.1%)
- PASI ≥90% Improvement, subjects (%) (Week 20, 25 mg BID, N=41): (34.1%)
- PASI 100% Improvement, subjects (%) (Week 20, 25 mg QD, N=43): (14.0%)
- PASI ≥75% Improvement, subjects (%) (Week 20, 25 mg QD, N=43): (48.8%)
- PASI ≥90% Improvement, subjects (%) (Week 20, 25 mg QD, N=43): (30.2%)
- PASI 100% Improvement, subjects (%) (Week 20, 50 mg QD, N=43): (18.6%)
- PASI ≥75% Improvement, subjects (%) (Week 20, 50 mg QD, N=43): (62.8%)
- PASI ≥90% Improvement, subjects (%) (Week 20, 50 mg QD, N=43): (48.8%)
- PASI 100% Improvement, subjects (%) (Week 20, 100 mg BID, N=42): (40.5%)
- PASI ≥75% Improvement, subjects (%) (Week 20, 100 mg BID, N=42): (81.0%)
